Experimental data from the supplement of paper PMC12463676, “Small-molecule dissolution of stress granules by redox modulation benefits ALS models” (Nature Chemical Biology, 2025).

What was measured:
potassium arsenate = compound: O=[As]([O-])(O)O.[K+] [potassium arsenate]; test: thermal stability z-score vs DMSO; higher = more thermally stabilized by treatment; settings: HeLa; arsenate concentration 1 mM
Procedure: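 Cellular thermal proteome profiling in HeLa cells treated with 1 mM arsenate for 1 h (DMSO pretreatment), heated to ten temperatures (37-66.3 °C). Soluble protein was quantified by TMT mass spectrometry relative to DMSO controls; the thermal stability score was transformed to a z-score; mean of n = 3 experiments.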

lipoamide = compound: NC(=O)CCCCC1CCSS1 [lipoamide]; test: as above; settings: HeLa, lipoamide concentration 100 µM
Procedure: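 Cellular thermal proteome profiling in HeLa cells. Cells were treated with 100 µM lipoamide for 1 h, with or without 1 mM arsenate for a further 1 h, then heated to ten temperatures (37-66.3 °C), and soluble protein was quantified by TMT mass spectrometry relative to 0.1% DMSO controls. The thermal stability score (sum of log2 fold changes minus the abundance score) was transformed to a z-score; mean of n = 3 experiments.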

[1] = arsenate co-treatment: 1 mM arsenate 1 h
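Note: each temperature applied for 3 min, abundance score taken as mean log2 fold change at the two lowest temperatures, z-score obtained by mean subtraction and division by SD.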

Sequence of UniProt Q7L4I2 (Q7L4I2 whole entry): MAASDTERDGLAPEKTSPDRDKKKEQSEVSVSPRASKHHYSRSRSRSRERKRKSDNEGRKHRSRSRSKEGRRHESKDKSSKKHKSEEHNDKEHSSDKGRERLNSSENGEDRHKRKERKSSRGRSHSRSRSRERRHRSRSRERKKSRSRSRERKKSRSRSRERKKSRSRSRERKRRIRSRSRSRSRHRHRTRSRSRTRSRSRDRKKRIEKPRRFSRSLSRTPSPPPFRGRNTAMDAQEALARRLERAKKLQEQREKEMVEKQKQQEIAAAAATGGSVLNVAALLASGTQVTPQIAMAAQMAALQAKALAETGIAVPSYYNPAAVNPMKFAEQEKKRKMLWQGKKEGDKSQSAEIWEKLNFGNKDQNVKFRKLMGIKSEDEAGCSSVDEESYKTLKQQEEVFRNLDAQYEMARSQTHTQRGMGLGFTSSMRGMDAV
Sequence of UniProt Q96DX4 (Q96DX4 whole entry): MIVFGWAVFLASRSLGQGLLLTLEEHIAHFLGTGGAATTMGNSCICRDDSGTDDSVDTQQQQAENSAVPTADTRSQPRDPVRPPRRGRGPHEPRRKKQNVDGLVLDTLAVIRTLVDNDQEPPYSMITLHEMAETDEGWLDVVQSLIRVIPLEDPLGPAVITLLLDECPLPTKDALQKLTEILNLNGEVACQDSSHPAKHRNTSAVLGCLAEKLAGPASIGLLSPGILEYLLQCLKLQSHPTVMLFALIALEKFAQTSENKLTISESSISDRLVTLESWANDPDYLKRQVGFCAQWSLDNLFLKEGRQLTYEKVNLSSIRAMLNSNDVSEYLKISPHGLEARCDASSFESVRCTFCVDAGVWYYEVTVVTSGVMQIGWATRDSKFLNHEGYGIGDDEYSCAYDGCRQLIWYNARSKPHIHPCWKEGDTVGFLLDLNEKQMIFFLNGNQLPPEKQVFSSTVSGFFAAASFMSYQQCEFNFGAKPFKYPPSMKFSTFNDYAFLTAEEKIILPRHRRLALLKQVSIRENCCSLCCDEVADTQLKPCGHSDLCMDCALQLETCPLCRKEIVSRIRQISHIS
Sequence of UniProt Q96IZ7 (Q96IZ7 whole entry): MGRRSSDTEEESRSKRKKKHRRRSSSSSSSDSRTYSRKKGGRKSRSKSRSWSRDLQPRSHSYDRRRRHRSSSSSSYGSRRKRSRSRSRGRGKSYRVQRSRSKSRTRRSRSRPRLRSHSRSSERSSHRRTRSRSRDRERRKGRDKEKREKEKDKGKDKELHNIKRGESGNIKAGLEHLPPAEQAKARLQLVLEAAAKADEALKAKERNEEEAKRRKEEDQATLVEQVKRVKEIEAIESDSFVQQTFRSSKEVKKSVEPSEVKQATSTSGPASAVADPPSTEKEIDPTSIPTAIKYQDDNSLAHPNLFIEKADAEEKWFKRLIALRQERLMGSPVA
Sequence of UniProt Q8IZ73 (Q8IZ73 whole entry): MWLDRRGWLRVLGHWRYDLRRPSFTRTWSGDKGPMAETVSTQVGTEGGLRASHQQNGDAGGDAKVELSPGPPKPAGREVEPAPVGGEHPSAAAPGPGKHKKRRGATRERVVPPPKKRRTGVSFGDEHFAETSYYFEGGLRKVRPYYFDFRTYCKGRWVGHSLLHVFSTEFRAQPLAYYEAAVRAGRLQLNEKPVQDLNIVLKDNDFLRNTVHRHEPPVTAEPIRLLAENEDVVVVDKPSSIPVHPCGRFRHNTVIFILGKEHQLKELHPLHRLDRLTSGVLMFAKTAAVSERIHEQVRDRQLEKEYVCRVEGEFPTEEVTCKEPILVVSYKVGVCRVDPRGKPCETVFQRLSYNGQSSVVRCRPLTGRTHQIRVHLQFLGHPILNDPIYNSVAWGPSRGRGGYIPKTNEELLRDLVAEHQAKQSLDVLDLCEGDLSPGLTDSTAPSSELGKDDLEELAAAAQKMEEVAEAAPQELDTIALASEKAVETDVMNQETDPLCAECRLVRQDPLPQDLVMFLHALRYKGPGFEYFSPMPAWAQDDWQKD
Sequence of UniProt Q6P087 (Q6P087 whole entry): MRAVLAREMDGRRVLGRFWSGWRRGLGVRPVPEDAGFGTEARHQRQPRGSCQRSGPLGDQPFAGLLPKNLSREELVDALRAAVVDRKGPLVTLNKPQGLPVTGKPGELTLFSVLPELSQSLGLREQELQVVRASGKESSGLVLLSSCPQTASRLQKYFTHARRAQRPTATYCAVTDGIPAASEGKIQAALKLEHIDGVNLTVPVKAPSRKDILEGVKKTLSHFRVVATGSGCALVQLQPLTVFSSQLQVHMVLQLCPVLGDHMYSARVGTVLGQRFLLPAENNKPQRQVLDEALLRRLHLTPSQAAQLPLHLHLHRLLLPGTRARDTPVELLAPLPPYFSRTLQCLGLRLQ
Sequence of UniProt O43818 (O43818 whole entry): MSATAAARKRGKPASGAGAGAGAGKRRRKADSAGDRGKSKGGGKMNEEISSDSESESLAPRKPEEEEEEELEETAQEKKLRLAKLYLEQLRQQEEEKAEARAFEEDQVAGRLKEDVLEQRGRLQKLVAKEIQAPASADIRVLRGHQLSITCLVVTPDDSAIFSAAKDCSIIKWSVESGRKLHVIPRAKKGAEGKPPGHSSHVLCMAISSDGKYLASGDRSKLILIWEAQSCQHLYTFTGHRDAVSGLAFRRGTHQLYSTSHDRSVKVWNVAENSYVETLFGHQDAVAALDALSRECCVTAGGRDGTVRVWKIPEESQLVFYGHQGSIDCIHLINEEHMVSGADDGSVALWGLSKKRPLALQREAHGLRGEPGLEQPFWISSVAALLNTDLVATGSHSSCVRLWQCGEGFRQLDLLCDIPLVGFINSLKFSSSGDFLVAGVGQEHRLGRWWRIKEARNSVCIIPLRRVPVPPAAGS
Sequence of UniProt Q7LG56 (Q7LG56 whole entry): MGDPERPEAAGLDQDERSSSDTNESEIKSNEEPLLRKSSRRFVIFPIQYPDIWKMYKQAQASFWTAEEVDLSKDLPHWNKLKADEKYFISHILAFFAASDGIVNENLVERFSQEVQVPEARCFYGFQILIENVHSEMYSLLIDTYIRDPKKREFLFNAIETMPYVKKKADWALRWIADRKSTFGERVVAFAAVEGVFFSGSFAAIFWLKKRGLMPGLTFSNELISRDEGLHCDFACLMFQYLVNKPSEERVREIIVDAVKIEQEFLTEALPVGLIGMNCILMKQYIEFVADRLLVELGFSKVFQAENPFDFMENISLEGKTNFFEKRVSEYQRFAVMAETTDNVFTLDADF
Sequence of UniProt Q5VWQ0 (Q5VWQ0 whole entry): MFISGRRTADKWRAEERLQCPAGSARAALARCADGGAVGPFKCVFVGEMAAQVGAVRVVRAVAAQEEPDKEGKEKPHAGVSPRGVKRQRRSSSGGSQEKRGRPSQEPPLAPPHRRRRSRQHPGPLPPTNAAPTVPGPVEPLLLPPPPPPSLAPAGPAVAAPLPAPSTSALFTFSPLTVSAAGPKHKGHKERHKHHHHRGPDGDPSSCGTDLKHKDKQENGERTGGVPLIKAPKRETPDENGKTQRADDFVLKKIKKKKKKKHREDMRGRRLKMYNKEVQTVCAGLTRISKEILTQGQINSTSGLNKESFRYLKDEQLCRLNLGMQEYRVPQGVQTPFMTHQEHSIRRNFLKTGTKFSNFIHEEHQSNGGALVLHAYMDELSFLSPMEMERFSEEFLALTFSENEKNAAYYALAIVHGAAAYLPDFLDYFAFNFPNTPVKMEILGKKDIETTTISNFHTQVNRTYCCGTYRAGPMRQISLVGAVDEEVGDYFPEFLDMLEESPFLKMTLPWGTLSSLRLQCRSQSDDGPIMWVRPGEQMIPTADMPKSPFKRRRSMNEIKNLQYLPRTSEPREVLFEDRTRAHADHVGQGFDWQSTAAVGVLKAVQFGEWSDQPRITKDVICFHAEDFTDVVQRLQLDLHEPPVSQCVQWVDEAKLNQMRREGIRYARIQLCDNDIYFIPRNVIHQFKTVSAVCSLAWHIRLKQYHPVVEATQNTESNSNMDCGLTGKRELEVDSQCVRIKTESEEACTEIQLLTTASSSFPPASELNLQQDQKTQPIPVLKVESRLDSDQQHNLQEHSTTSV
Sequence of UniProt P57060 (P57060 whole entry): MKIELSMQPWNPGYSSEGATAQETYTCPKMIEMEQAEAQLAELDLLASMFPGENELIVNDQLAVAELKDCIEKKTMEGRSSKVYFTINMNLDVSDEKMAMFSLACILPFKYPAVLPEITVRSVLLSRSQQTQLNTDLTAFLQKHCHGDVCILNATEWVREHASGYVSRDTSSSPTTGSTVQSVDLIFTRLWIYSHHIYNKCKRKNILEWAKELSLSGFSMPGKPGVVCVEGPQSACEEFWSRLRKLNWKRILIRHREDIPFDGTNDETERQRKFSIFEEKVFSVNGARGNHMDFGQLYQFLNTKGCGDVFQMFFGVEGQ
Sequence of UniProt Q8WXA3 (Q8WXA3 whole entry): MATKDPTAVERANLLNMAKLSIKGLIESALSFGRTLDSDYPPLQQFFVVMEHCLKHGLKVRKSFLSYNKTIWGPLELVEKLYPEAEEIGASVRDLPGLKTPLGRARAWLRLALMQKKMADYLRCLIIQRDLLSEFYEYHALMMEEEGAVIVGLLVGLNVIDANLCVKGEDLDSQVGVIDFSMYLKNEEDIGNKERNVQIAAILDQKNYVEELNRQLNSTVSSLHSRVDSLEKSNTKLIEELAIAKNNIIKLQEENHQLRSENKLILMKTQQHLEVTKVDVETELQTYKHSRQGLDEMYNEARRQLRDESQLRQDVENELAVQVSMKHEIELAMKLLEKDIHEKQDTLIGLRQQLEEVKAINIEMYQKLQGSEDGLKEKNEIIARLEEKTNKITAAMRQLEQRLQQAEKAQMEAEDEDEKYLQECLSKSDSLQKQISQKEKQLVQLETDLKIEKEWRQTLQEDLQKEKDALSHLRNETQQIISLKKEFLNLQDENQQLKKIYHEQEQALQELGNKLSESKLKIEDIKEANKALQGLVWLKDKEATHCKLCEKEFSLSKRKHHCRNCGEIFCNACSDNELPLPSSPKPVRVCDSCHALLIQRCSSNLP
Sequence of UniProt Q86WX3 (Q86WX3 whole entry): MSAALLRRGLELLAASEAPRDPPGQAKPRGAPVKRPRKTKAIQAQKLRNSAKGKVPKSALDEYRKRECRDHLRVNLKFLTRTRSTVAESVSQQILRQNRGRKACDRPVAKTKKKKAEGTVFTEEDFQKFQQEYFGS

Row | Target | thermal stability z-score (potassium arsenate) | thermal stability z-score (lipoamide; [1]) | thermal stability z-score (lipoamide; arsenate co-treatment: none)
1 | RPS7 (UniProt P62081) | -0.493 | 0.514 | 0.322
2 | RPS8 (UniProt P62241) | -0.848 | 0.378 | 0.0867
3 | RPS9 (UniProt P46781) | -1.03 | 0.28 | 0.125
4 | RPS10 (UniProt P46783) | -0.422 | 0.895 | 0.406
5 | RPS11 (UniProt P62280) | -1.11 | 0.621 | 0.352
6 | RPS12 (UniProt P25398) | -0.949 | 0.613 | 0.884
7 | RPS13 (UniProt P62277) | -1.11 | 0.784 | 0.463
8 | RPS14 (UniProt P62263) | -0.926 | 0.641 | 0.21
9 | RPS15 (UniProt P62841) | -0.957 | 0.148 | 0.282
10 | RPS15A (UniProt P62244) | -0.776 | 0.437 | 0.494
11 | RPS16 (UniProt P62249) | -0.329 | 1.04 | 0.549
12 | RPS17 (UniProt P08708) | -0.614 | 0.31 | -0.0463
13 | RPS18 (UniProt P62269) | -0.81 | 0.389 | 0.214
14 | RPS19 (UniProt P39019) | -1.03 | 0.104 | 0.15
15 | RPS19BP1 (UniProt Q86WX3) | -0.522 | -0.305 | -0.278
16 | RPS20 (UniProt P60866) | -0.0402 | 1.14 | 1.14
17 | RPS21 (UniProt P63220) | -0.196 | 0.253 | 0.512
18 | RPS23 (UniProt P62266) | -0.0437 | -0.0441 | 0.207
19 | RPS24 (UniProt P62847) | -0.971 | 0.103 | -0.101
20 | RPS25 (UniProt P62851) | -0.573 | 0.792 | 0.586
21 | RPS26 (UniProt P62854) | -0.743 | 0.0208 | 0.263
22 | RPS27A (UniProt P62979) | -1.18 | 0.106 | -0.431
23 | RPS28 (UniProt P62857) | -0.0195 | 0.574 | 0.243
24 | RPS29 (UniProt P62273) | -0.415 | 1.14 | 1.17

Row | Target | thermal stability z-score (potassium arsenate) | thermal stability z-score (lipoamide; [1]) | thermal stability z-score (lipoamide; arsenate co-treatment: none)
25 | RPSA (UniProt P08865) | -1.42 | 0.555 | 0.847
26 | RPTOR (UniProt Q8N122) | 0.227 | 0.0585 | 0.132
27 | RPUSD2 (UniProt Q8IZ73) | 0.29 | -0.528 | 0.461
28 | RPUSD3 (UniProt Q6P087) | 0.085 | 0.12 | 0.0857
29 | RPUSD4 (UniProt Q96CM3) | -0.998 | -0.196 | -1.67
30 | RQCD1 (UniProt Q92600) | 0.74 | -0.57 | -0.143
31 | RRAGC (UniProt Q9HB90) | -0.786 | 0.182 | -0.182
32 | RRAS2 (UniProt P62070) | 0.544 | 0.129 | 0.0499
33 | RRAS (UniProt P10301) | 0.844 | 0.632 | 0.351
34 | RRBP1 (UniProt Q9P2E9) | -0.458 | 0.226 | 0.25
35 | RRM1 (UniProt P23921) | 0.11 | 0.219 | 0.204
36 | RRM2 (UniProt P31350) | 0.674 | 0.385 | 0.731
37 | RRM2B (UniProt Q7LG56) | -0.703 | 0.945 | 0.415
38 | RRN3 (UniProt Q9NYV6) | -2.42 | -0.321 | -0.104
39 | RRP1 (UniProt P56182) | 0.671 | 0.0258 | 0.131
40 | RRP1B (UniProt Q14684) | -0.0634 | 0.131 | 0.133
41 | RRP7A (UniProt Q9Y3A4) | -0.216 | 0.108 | -0.213
42 | RRP9 (UniProt O43818) | -0.755 | -0.195 | 0.108
43 | RRP12 (UniProt Q5JTH9) | 0.0662 | 0.612 | 0.819
44 | RRP15 (UniProt Q9Y3B9) | -0.817 | -0.279 | -0.438
45 | RRS1 (UniProt Q15050) | -2.24 | 1.32 | -0.132
46 | RSBN1 (UniProt Q5VWQ0) | -0.387 | -0.421 | -0.198
47 | RSBN1L (UniProt Q6PCB5) | 0.113 | -0.0324 | -0.225
48 | RSL1D1 (UniProt O76021) | -0.48 | 0.414 | -0.108

Row | Target | thermal stability z-score (potassium arsenate) | thermal stability z-score (lipoamide; [1]) | thermal stability z-score (lipoamide; arsenate co-treatment: none)
49 | RSL24D1 (UniProt Q9UHA3) | -3.91 | 1.21 | 0.133
50 | RSPRY1 (UniProt Q96DX4) | -0.152 | 0.302 | 0.576
51 | RSRC1 (UniProt Q96IZ7) | 1.14 | 1.06 | 0.987
52 | RSRC2 (UniProt Q7L4I2) | 1.03 | 0.668 | 0.164
53 | RSU1 (UniProt Q15404) | -1.38 | -0.465 | -0.369
54 | RTCA (UniProt O00442) | -0.695 | 0.213 | 0.21
55 | RTCB (UniProt Q9Y3I0) | -1.21 | 0.445 | 0.0607
56 | RTF1 (UniProt Q92541) | -0.323 | 0.13 | 0.0546
57 | RTFDC1 (UniProt Q9BY42) | -1.48 | -1.39 | -0.367
58 | RTKN (UniProt Q9BST9) | -0.395 | -0.183 | -0.084
59 | RTN3 (UniProt O95197) | 0.525 | 0.112 | 0.0244
60 | RTN4 (UniProt Q9NQC3) | 0.413 | 0.244 | 0.711
61 | RTN4IP1 (UniProt Q8WWV3) | 0.0315 | -0.324 | -0.26
62 | RTN4RL2 (UniProt Q86UN3) | 0.417 | -1.87 | -1.25
63 | RTTN (UniProt Q86VV8) | -0.117 | -0.0275 | -0.0536
64 | RUFY1 (UniProt Q96T51) | 0.39 | -0.702 | -0.00916
65 | RUFY2 (UniProt Q8WXA3) | -0.0152 | -0.19 | -0.0853
66 | RUSC1 (UniProt Q9BVN2) | -0.0614 | 0.0753 | 0.00504
67 | RUVBL1 (UniProt Q9Y265) | -0.662 | -0.0828 | 0.115
68 | RUVBL2 (UniProt Q9Y230) | -0.75 | -0.408 | -0.0917
69 | RWDD1 (UniProt Q9H446) | 0.471 | 0.432 | 0.421
70 | RWDD2B (UniProt P57060) | -0.0179 | 0.0612 | -0.0257
71 | RWDD4 (UniProt Q6NW29) | 0.261 | -0.526 | -0.0479
